{"source": "paper PMC1977485", "about": "“The renal effects of N10-propargyl-5,8-dideazafolic acid (CB3717) and a non-nephrotoxic analogue ICI D1694, in mice” (British Journal of Cancer, 1991)", "key": {"C57/DBA2 mice [1]": {"tested_on": "C57/DBA2 mice", "experiment": "Plasma urea concentration", "format": "in vivo", "details": "single dose 100 mg kg-1, at 9, 10, 11 and 14 weeks, small number of animals", "text": "Br .Cncr(91) 4 3-88?McilnPesLd,19 The renal effects of N1l-propargyl-5,8-dideazafolic acid (CB3717) and a non-nephrotoxic analogue ICI D1694, in mice D.I. Jodrell', D.R. Newelll,*, S.E. Morgan', S. Clinton2, J.P.M. Bensted2, L.R. Hughes3 & A.H. Calvertl,* 'Clinical Pharmacology Team, Drug Development Section, and 2Histopathology Section, Institute of Cancer Research, 15 Cotswold Road, Sutton, Surrey SM2 SNG; and 3ICI Pharmaceuticals, Mereside, Alderley Park, Macclesfield, Cheshire SKIO 4TG, UK. Summary N-(5-[N-(3,4-dihydro-2-methyl-4-oxoquinazolin-6-ylmethyl)-N-methylamino]-2-thenoyl)-L-glutamic acid (ICI D1694) is an analogue of the thymidylate synthase inhibitor, N'?-propargyl-5,8-dideazafolic acid (CB3717). […] Previous studies have shown ICI D1694 to be non-toxic to the kidney following a single administration but its renal effects after chronic administration are unknown. […] The '4C-inulin clearance assay developed was used to show a linear relationship between CB3717 dosage and renal damage (r=-0.989) following a single bolus dose (50-200mgkg-'), in mice. CB3717-induced renal damage is persistent (>6 weeks) and renal scarring was noted. […] The plasma concentrations of urea and creatinine are com- monly measured to assess renal function during toxicological screening of new drugs. […]"}, "C57/DBA2 mice [2]": {"tested_on": "C57/DBA2 mice", "experiment": "GFR by 14C-inulin clearance, single timed plasma sample, in drug treated mice", "format": "in vivo", "text": "Br .Cncr(91) 4 3-88?McilnPesLd,19 The renal effects of N1l-propargyl-5,8-dideazafolic acid (CB3717) and a non-nephrotoxic analogue ICI D1694, in mice D.I. Jodrell', D.R. Newelll,*, S.E. Morgan', S. Clinton2, J.P.M. Bensted2, L.R. Hughes3 & A.H. Calvertl,* 'Clinical Pharmacology Team, Drug Development Section, and 2Histopathology Section, Institute of Cancer Research, 15 Cotswold Road, Sutton, Surrey SM2 SNG; and 3ICI Pharmaceuticals, Mereside, Alderley Park, Macclesfield, Cheshire SKIO 4TG, UK. Summary N-(5-[N-(3,4-dihydro-2-methyl-4-oxoquinazolin-6-ylmethyl)-N-methylamino]-2-thenoyl)-L-glutamic acid (ICI D1694) is an analogue of the thymidylate synthase inhibitor, N'?-propargyl-5,8-dideazafolic acid (CB3717). […] Previous studies have shown ICI D1694 to be non-toxic to the kidney following a single administration but its renal effects after chronic administration are unknown. […] The '4C-inulin clearance assay developed was used to show a linear relationship between CB3717 dosage and renal damage (r=-0.989) following a single bolus dose (50-200mgkg-'), in mice. CB3717-induced renal damage is persistent (>6 weeks) and renal scarring was noted. […] However, the clinical use of CB3717 was limited by its nephrotoxicity, which was observ- ed in Phase I studies of both weekly (Vest et al., 1988) and 3-weekly administration schedules (Calvert et al., 1986; Sessa et al., 1988). Renal toxicity manifested primarily as a reduc- tion in glomerular filtration rate (GFR). However, tubular damage was also identified by the measurement of the urin- ary enzymes, N-acetyl glucosaminidase (NAG) and leucine aminopeptidase (LAP). […] In addition, urinary NAG and LAP levels were elevated in 50% of patients studied, although this elevation was not dose related (Calvert et al., 1986). CB3717-induced nephrotoxicity was thought to be due to the compound's relative insolubility at acid pH. […] The plasma concentrations of urea and creatinine are com- monly measured to assess renal function during toxicological screening of new drugs. […]"}, "C57/DBA2 mice [3]": {"tested_on": "C57/DBA2 mice", "experiment": "Histological examination of the kidney (H&E)", "format": "in vivo", "text": "Br .Cncr(91) 4 3-88?McilnPesLd,19 The renal effects of N1l-propargyl-5,8-dideazafolic acid (CB3717) and a non-nephrotoxic analogue ICI D1694, in mice D.I. Jodrell', D.R. Newelll,*, S.E. Morgan', S. Clinton2, J.P.M. Bensted2, L.R. Hughes3 & A.H. Calvertl,* 'Clinical Pharmacology Team, Drug Development Section, and 2Histopathology Section, Institute of Cancer Research, 15 Cotswold Road, Sutton, Surrey SM2 SNG; and 3ICI Pharmaceuticals, Mereside, Alderley Park, Macclesfield, Cheshire SKIO 4TG, UK. Summary N-(5-[N-(3,4-dihydro-2-methyl-4-oxoquinazolin-6-ylmethyl)-N-methylamino]-2-thenoyl)-L-glutamic acid (ICI D1694) is an analogue of the thymidylate synthase inhibitor, N'?-propargyl-5,8-dideazafolic acid (CB3717). […] Previous studies have shown ICI D1694 to be non-toxic to the kidney following a single administration but its renal effects after chronic administration are unknown. […] The '4C-inulin clearance assay developed was used to show a linear relationship between CB3717 dosage and renal damage (r=-0.989) following a single bolus dose (50-200mgkg-'), in mice. CB3717-induced renal damage is persistent (>6 weeks) and renal scarring was noted. […] However, the clinical use of CB3717 was limited by its nephrotoxicity, which was observ- ed in Phase I studies of both weekly (Vest et al., 1988) and 3-weekly administration schedules (Calvert et al., 1986; Sessa et al., 1988). Renal toxicity manifested primarily as a reduc- tion in glomerular filtration rate (GFR). However, tubular damage was also identified by the measurement of the urin- ary enzymes, N-acetyl glucosaminidase (NAG) and leucine aminopeptidase (LAP). […] In addition, urinary NAG and LAP levels were elevated in 50% of patients studied, although this elevation was not dose related (Calvert et al., 1986). CB3717-induced nephrotoxicity was thought to be due to the compound's relative insolubility at acid pH. […] To circumvent toxicity related to drug precipitation in the kidney, a series of more soluble analogues of CB3717 have been synthesised. […] One such analogue, N-(5-[N-(3,4-dihydro-2- methyl- 4 -oxoquinazolin- 6 -ylmethyl)- N -methylamino]-2-the- noyl) L-glutamic acid (ICI D1694, Figure lii) has been selected for preclinical development (Jackman et al., 1991). The plasma concentrations of urea and creatinine are com- monly measured to assess renal function during toxicological screening of new drugs. However, these parameters are rela- tively insensitive, because, in mice, a rise in plasma urea and creatinine concentration only occurs following the loss of 70-75% of functional renal mass (Everett & Harrison, 1983). Specificity is also poor because an elevation in plasma urea may be caused by 'pre-renal' (increased protein catabolism, gastric or intestinal bleeding and dehydration) or 'post-renal' (obstruction to renal outflow) causes, as well as parenchymal renal damage (Everett & Harrison, 1983). […] In man, the measurement of GFR has become accepted as a routine method for the assessment of renal function. The classical technique using inulin, which is solely cleared from the plasma by glomerular filtration, involves its constant infusion with simultaneous urine collec- tion (Jones, 1985). However, in mice, a constant infusion of inulin and simultaneous urine collection would require anaes- thesia or rigid restraint and complete emptying of the bladder before and at completion of the test (Ragan, 1989). Therefore a b Correspondence: D.I. Jodrell, Clinical Pharmacology, Drug Develop- ment Section, E Block, Institute of Cancer Research, 15 Cotswold Road, Sutton, Surrey SM2 5NG, UK. *Present address: Cancer Research Unit, The Medical School, Uni- versity of Newcastle upon Tyne, Framlington Place, Newcastle upon Tyne NE2 4HH, UK. Received 5 June 1991; and in revised form 19 July 1991. […]"}, "[4]": {"design": "method as in Newell et al., 1986", "details": "radiolabelled CB3717, mice, 23 days after administration; ref Newell et al., 1986; cited from earlier work"}, "patients": {"tested_on": "patients", "details": "cited from earlier work"}, "mice": {"tested_on": "mice", "design": "method as in Jodrell et al., 1990", "details": "single bolus doses of 500 mg kg-1; ref Jodrell et al., 1990; cited from earlier work"}, "[5]": {"details": "compared with CB3717; cited from earlier work"}, "[6]": {"details": "100 mg kg-1 weekly for 6 weeks, 1 week after final dose"}}, "data": [{"molecule": "C#CCN(Cc1ccc2nc(N)[nH]c(=O)c2c1)c1ccc(C(=O)N[C@@H](CCC(=O)O)C(=O)O)cc1", "note": "[CB3717, N10-propargyl-5,8-dideazafolic acid]", "values": [{"measurement": "plasma biochemistry (urea and creatinine concentrations)", "setting": "C57/DBA2 mice [1]", "result": "normal"}, {"measurement": "reduction in GFR", "setting": "C57/DBA2 mice [2]; 200 mg kg-1 single ip bolus, 5 days after (Figure 4)", "result": "> 70", "unit": "%"}, {"measurement": "persistence of renal damage", "setting": "C57/DBA2 mice [2]; single dose 100 mg kg-1", "result": "> 6", "unit": "weeks"}, {"measurement": "GFR", "setting": "C57/DBA2 mice [2]; single dose of 10 mg kg-1 (30 mg m-2), 5 days after", "result": "normal"}, {"measurement": "kidney histology", "setting": "C57/DBA2 mice [3]; [6]", "result": "Cortical scarring with tubular dilatation and amorphous casts"}, {"measurement": "kidney histology", "setting": "C57/DBA2 mice [3]; single dose 10 mg kg-1, 5 days after", "result": "normal"}, {"measurement": "kidney histology", "setting": "C57/DBA2 mice [3]; single dose 50 mg kg-1, 5 days after", "result": "focal tubular dilatation"}, {"measurement": "kidney histology", "setting": "C57/DBA2 mice [3]; single dose 100 mg kg-1, 14 weeks, small number of animals", "result": "cortical scarring and the presence of amorphous casts"}, {"measurement": "kidney histology", "setting": "C57/DBA2 mice [3]; single dose 100 mg kg-1, 24 h after administration", "result": "tubular dilatation"}, {"measurement": "kidney histology", "setting": "C57/DBA2 mice [3]; single dose 100 mg kg-1, day 3", "result": "focal tubular dilatation"}, {"measurement": "kidney histology", "setting": "C57/DBA2 mice [3]; single dose 100 mg kg-1, day 20", "result": "glomerular atrophy"}, {"measurement": "kidney histology", "setting": "C57/DBA2 mice [3]; single dose 100 mg kg-1, days 5 and 7", "result": "Tubular dilatation persisted through days 5 and 7 with increased tubular mitotic activity"}, {"measurement": "kidney histology", "setting": "C57/DBA2 mice [3]; single dose 100 mg kg-1, six weeks (42 days)", "result": "deeply pitted scars"}, {"measurement": "radioactivity in the kidneys", "setting": "[4]", "result": "still detectable"}, {"measurement": "courses with reductions in GFR (creatinine clearance) of >20%", "setting": "patients; 6/17 courses at 400 mg m2 despite alkalinisation of the urine, ref Sessa et al., 1988", "result": 35, "unit": "%"}, {"measurement": "lowest dose causing renal damage (reduction in GFR)", "setting": "patients; bolus injection at weekly intervals, in man, ref Vest et al., 1988", "result": 10, "unit": "mg m2"}, {"measurement": "patients with elevated urinary NAG and LAP levels", "setting": "patients; patients studied, not dose related, ref Calvert et al., 1986", "result": 50, "unit": "%"}, {"measurement": "patients with >20% reduction in GFR", "setting": "patients; seven of 12 patients receiving more than 400 mg m2, ref Calvert et al., 1986", "result": 58, "unit": "%"}]}, {"molecule": "Cc1nc2ccc(CN(C)c3ccc(C(=O)N[C@@H](CCC(=O)O)C(=O)O)s3)cc2c(=O)[nH]1", "note": "[ICI D1694, N-(5-[N-(3,4-dihydro-2-methyl-4-oxoquinazolin-6-ylmethyl)-N-methylamino]-2-thenoyl)-L-glutamic acid]", "values": [{"measurement": "acute renal toxicity", "setting": "mice", "result": "absence of acute renal toxicity"}, {"measurement": "kidney histology", "setting": "C57/DBA2 mice [3]; [6]", "result": "no histological evidence of renal damage"}, {"measurement": "kidney histology", "setting": "C57/DBA2 mice [3]; 250 mg kg-1 weekly for 6 weeks, 1 week after final dose", "result": "normal in 5/5 mice"}, {"measurement": "water solubility", "setting": "[5]", "result": "more water soluble"}]}]}
